Like-named read-outs stand apart in the source and are kept apart here.
Key:
Assay type in all cases: in vivo
[1] = tested on: Cabbage Looper (Trichoplusia ni, TRIPNI) ("CL"); assay: Bioassays on Cabbage Looper (CL), 128-well diet tray assay; settings: Trichoplusia ni, 168 h, read-out: CL % Control (or Mortality) rating
Method: (§1) Certain molecules disclosed in this document were tested against BAW and CEW using procedures described in the following examples. In the reporting of the results, the “BAW & CL Rating Table” was used (See Table Section).
Bioassays on CL were conducted using a 128-well diet tray assay. one to five second instar CL larvae were placed in each well (3 mL) of the diet tray that had been previously filled with 1 mL of artificial diet to which 50 μg/cm^2 of the test compound (dissolved in 50 μL of 90:10 acetone-water mixture) had been applied (to each of eight wells) and then allowed to dry. Trays were covered with a clear self-adhesive cover and held at 25° C., 14:10 light-dark for five to seven days. Percent mortality was recorded for the larvae in each well; activity in the eight wells was then averaged. The results are indicated in the table entitled “Table ABC: Biological Results” (See Table Section).

[2] = tested on: Yellow Fever Mosquito (Aedes aegypti, AEDSAE) ("YFM"); settings: about 1 day-old larvae, 4000 ppm master solution diluted, 3 days, room temperature
Method: Certain molecules disclosed in this document were tested against YFM using procedures described in the following paragraph. In the reporting of the results, the “YFM Rating Table” was used (See Table Section).
Master plates containing 400 μg of a molecule dissolved in 100 μL of dimethyl sulfoxide (DMSO) (equivalent to a 4000 ppm solution) are used. A master plate of assembled molecules contains 15 μL per well. To this plate, 135 μL of a 90:10 water:acetone mixture is added to each well. A robot (Biomek® NXP Laboratory Automation Workstation) is programmed to dispense 15 μL aspirations from the master plate into an empty 96-well shallow plate (“daughter” plate). There are 6 reps (“daughter” plates) created per master. The created daughter plates are then immediately infested with YFM larvae.
The day before plates are to be treated, mosquito eggs are placed in Millipore water containing liver powder to begin hatching (4 g. into 400 mL). After the daughter plates are created using the robot, they are infested with 220 μL of the liver powder/larval mosquito mixture (about 1 day-old larvae). After plates are infested with mosquito larvae, a non-evaporative lid is used to cover the plate to reduce drying. Plates are held at room temperature for 3 days prior to grading. After 3 days, each well is observed and scored based on mortality.

[3] = tested on: Beet Armyworm (Spodoptera exigua, LAPHEG) ("BAW"); assay: Bioassays on Beet Armyworm (BAW), 128-well diet tray assay; settings: Spodoptera exigua, 168 h, read-out: BAW % Control (or Mortality) rating
Method: as §1
Bioassays on BAW were conducted using a 128-well diet tray assay. one to five second instar BAW larvae were placed in each well (3 mL) of the diet tray that had been previously filled with 1 mL of artificial diet to which 50 μg/cm^2 of the test compound (dissolved in 50 μL of 90:10 acetone-water mixture) had been applied (to each of eight wells) and then allowed to dry. Trays were covered with a clear self-adhesive cover and held at 25° C., 14:10 light-dark for five to seven days. Percent mortality was recorded for the larvae in each well; activity in the eight wells was then averaged. The results are indicated in the table entitled “Table ABC: Biological Results” (See Table Section).

[4] = second instar BAW larvae, 50 μg/cm^2 on artificial diet, five to seven days, 25° C.

SMILES | mortality at 50 µg/cm2 [1] | YFM % Control (or Mortality) rating [2] | mortality at 50 µg/cm2 [3, 4] | mortality at 50 µg/cm2 [3]
COc1ccccc1-c1cc(C(=O)Nc2ccc(-c3ncn(-c4ccc(C(F)(F)F)cc4)n3)cc2)ccc1F [F20, 6-fluoro-2′-methoxy-N-(4-(1-(4-(trifluoromethyl)phenyl)-1H-1,2,4-triazol-3-yl)phenyl)-[1,1′-biphenyl]-3-carboxamide] | 50 to 100% | A (80-100) | 50 to 100% | 
O=C(Nc1ccc(-c2ncn(-c3ccc(OC(F)(F)F)cc3)n2)cc1)c1cccc(-c2ccccc2)n1 [F27, 6-Phenyl-N-(4-(1-(4-(trifluoromethoxy)phenyl)-1H-1,2,4-triazol-3-yl)phenyl)picolinamide] | 0% | D (No activity noticed in this bioassay) | 0 to 50% | 
O=C(Nc1ccc(-c2ncn(-c3ccc(OC(F)(F)F)cc3)n2)cc1)c1cccc(-c2ccccc2OCc2ccccc2)c1 [F3, 2′-(Benzyloxy)-N-(4-(1-(4-(trifluoromethoxy)phenyl)-1H-1,2,4-triazol-3-yl)phenyl)-[1,1′-biphenyl]-3-carboxamide] | 0% | D (No activity noticed in this bioassay) | 0% | 
COc1ccccc1-c1cccc(C(=O)Nc2ccc(-c3ncn(-c4ccc(OC(F)(F)C(F)(F)F)cc4)n3)cc2)c1 [F26, 2′-Methoxy-N-(4-(1-(4-(perfluoroethoxy)phenyl)-1H-1,2,4-triazol-3-yl)phenyl)-[1,1′-biphenyl]-3-carboxamide] | 50 to 100% | A (80-100) | 50 to 100% | 
CC(C)Oc1ccc(-n2cnc(-c3ccc(NC(=O)c4ccc(F)c(-c5ccccc5)c4)cc3)n2)cc1 [F16, 6-Fluoro-N-(4-(1-(4-isopropoxyphenyl)-1H-1,2,4-triazol-3-yl)phenyl)-[1,1′-biphenyl]-3-carboxamide] | 50 to 100% | B (More than 0-Less than 80) | 0% | 
O=C(Nc1ccc(-c2ncn(-c3ccc(OC(F)(F)F)cc3)n2)cc1)c1cc(F)cc(-c2ccccc2)c1 [F25, 5-Fluoro-N-(4-(1-(4-(trifluoromethoxy)phenyl)-1H-1,2,4-triazol-3-yl)phenyl)-[1,1′-biphenyl]-3-carboxamide] | 50 to 100% | D (No activity noticed in this bioassay) |  | 50 to 100%
CCN(C(=O)c1ccc(F)c(-c2ccccc2OC)c1)c1ccc(-c2ncn(-c3ccc(OC(F)(F)F)cc3)n2)cc1 [F64, N-Ethyl-6-fluoro-2′-methoxy-N-(4-(1-(4-(trifluoromethoxy)phenyl)-1H-1,2,4-triazol-3-yl)phenyl)-[1,1′-biphenyl]-3-carboxamide] | 50 to 100% | D (No activity noticed in this bioassay) | 50 to 100% | 
CCCN(C(=O)c1ccc(F)c(-c2ccccc2OC)c1)c1ccc(-c2ncn(-c3ccc(OC(F)(F)F)cc3)n2)cc1 [F65, 6-Fluoro-2′-methoxy-N-propyl-N-(4-(1-(4-(trifluoromethoxy)phenyl)-1H-1,2,4-triazol-3-yl)phenyl)-[1,1′-biphenyl]-3-carboxamide] | 50 to 100% | D (No activity noticed in this bioassay) | 50 to 100% | 
O=C(Nc1ccc(-c2ncn(-c3ccc(OC(F)(F)F)cc3)n2)cc1)c1cc(Cl)cc(-c2ccccc2)c1 [F43, 5-Chloro-N-(4-(1-(4-(trifluoromethoxy)phenyl)-1H-1,2,4-triazol-3-yl)phenyl)-[1,1′-biphenyl]-3-carboxamide] | 50 to 100% | D (No activity noticed in this bioassay) | 50 to 100% | 
O=C(Nc1ccc(-c2ncn(-c3ccc(OC(F)(F)C(F)(F)F)cc3)n2)cc1)c1ccc(F)c(-c2ccccc2)c1 [F40, 6-Fluoro-N-(4-(1-(4-(perfluoroethoxy)phenyl)-1H-1,2,4-triazol-3-yl)phenyl)-[1,1′-biphenyl]-3-carboxamide] | 50 to 100% | D (No activity noticed in this bioassay) | 0% | 
Cc1ccccc1-c1cccc(C(=O)Nc2ccc(-c3ncn(-c4ccc(OC(F)(F)C(F)(F)F)cc4)n3)cc2)c1 [F35, 2′-Methyl-N-(4-(1-(4-(perfluoroethoxy)phenyl)-1H-1,2,4-triazol-3-yl)phenyl)-[1,1′-biphenyl]-3-carboxamide] | 50 to 100% | D (No activity noticed in this bioassay) | 50 to 100% | 
Cc1cccc(C)c1-c1cccc(C(=O)Nc2ccc(-c3ncn(-c4ccc(OC(F)(F)C(F)(F)F)cc4)n3)cc2)c1 [F31, 2′,6′-Dimethyl-N-(4-(1-(4-(perfluoroethoxy)phenyl)-1H-1,2,4-triazol-3-yl)phenyl)-[1,1′-biphenyl]-3-carboxamide] | 50 to 100% | D (No activity noticed in this bioassay) | 50 to 100% | 
COc1ccccc1-c1cc(C(=O)Nc2ccc(-c3ncn(-c4ccc(OC(F)(F)F)cc4)n3)cc2)ccc1F [F44, 6-Fluoro-2′-methoxy-N-(4-(1-(4-(trifluoromethoxy)phenyl)-1H-1,2,4-triazol-3-yl)phenyl)-[1,1′-biphenyl]-3-carboxamide] | 50 to 100% | B (More than 0-Less than 80) | 50 to 100% | 
O=C(Nc1ccc(-c2ncn(-c3ccc(C(F)(F)F)cc3)n2)cc1)c1ccc(F)c(-c2ccccc2)c1 [F62, 6-Fluoro-N-(4-(1-(4-(trifluoromethyl)phenyl)-1H-1,2,4-triazol-3-yl)phenyl)-[1,1′-biphenyl]-3-carboxamide] | 50 to 100% | B (More than 0-Less than 80) | 50 to 100% | 
O=C(Nc1ccc(-c2ncn(-c3ccc(OC(F)(F)F)cc3)n2)cc1)c1cccc(-c2ccccc2Cl)c1 [F30, 2′-Chloro-N-(4-(1-(4-(trifluoromethoxy)phenyl)-1H-1,2,4-triazol-3-yl)phenyl)-[1,1′-biphenyl]-3-carboxamide] | 50 to 100% | D (No activity noticed in this bioassay) | 50 to 100% | 
O=C(Nc1ccc(-c2ncn(-c3ccc(OC(F)(F)C(F)(F)F)cc3)n2)cc1)c1cc(Cl)cc(-c2ccccc2)c1 [F6, 5-Chloro-N-(4-(1-(4-(perfluoroethoxy)phenyl)-1H-1,2,4-triazol-3-yl)phenyl)-[1,1′-biphenyl]-3-carboxamide] | 0% | D (No activity noticed in this bioassay) | 0% | 
Cc1ccc(-c2cccc(C(=O)Nc3ccc(-c4ncn(-c5ccc(OC(F)(F)F)cc5)n4)cc3)n2)c(C)c1 [F2, 6-(2,4-Dimethylphenyl)-N-(4-(1-(4-(trifluoromethoxy)phenyl)-1H-1,2,4-triazol-3-yl)phenyl)picolinamide] | 0% | D (No activity noticed in this bioassay) | 0 to 50% | 
O=C(Nc1ccc(-c2ncn(-c3ccc(OC(F)(F)F)cc3)n2)cc1)c1cccc(-c2ccc(Cl)cc2Cl)n1 [F18, 6-(2,4-Dichlorophenyl)-N-(4-(1-(4-(trifluoromethoxy)phenyl)-1H-1,2,4-triazol-3-yl)phenyl)picolinamide] | 0% | D (No activity noticed in this bioassay) | 0% | 
CC(=O)c1ccccc1-c1cccc(C(=O)Nc2ccc(-c3ncn(-c4ccc(OC(F)(F)F)cc4)n3)cc2)c1 [F41, 2′-Acetyl-N-(4-(1-(4-(trifluoromethoxy)phenyl)-1H-1,2,4-triazol-3-yl)phenyl)-[1,1′-biphenyl]-3-carboxamide] | 50 to 100% | A (80-100) | 50 to 100% | 

Reference: US9550739B2, “Molecules having certain pesticidal utilities, and intermediates, compositions, and processes related thereto” (priority 2014, dated 2017)
